Results taken from patent US11850252B2, “Use of nor-ursodeoxycholic acid for reducing liver fat” (Dr. Falk Pharma GmbH, priority 2017, dated 2023).
Where “and” joins values, the source holds several entries; their conditions need not be identical. Equal values may be shown once. Read-outs that look alike come from different tables or passages of the source.

Key:
[1] = test system: Patients with a clinical diagnosis of non-alcoholic hepatic steatosis; experiment: Cytokeratin 18 (M30, M65 fragments) in the course of the study; type: in vivo, human; conditions: for mean value of Cytokeratin 18 (M30 fragment) / mean value of Cytokeratin 18 (M65 fragment): V2 baseline
Text: In another embodiment, the patient to be treated has a serum level of cytokeratin 18 (M65) of less than 750 U/ml, or less than 600 U/ml, or less than 500 U/ml, or less than 400 U/ml, or less than 300 U/ml or even less than 250 U/ml. The level of the M65 fragment of cytokeratin-18 can be determined by known methods, e.g. by an enzyme-linked immunosorbent assay (ELISA)
In another embodiment, the patient to be treated has a serum level of cytokeratin 18 (M30) of less than 500 U/ml, or less than 400 U/ml, or less than 300 U/ml, or less than 200 U/ml, or less than 150 U/ml. The level of the M30 fragment of cytokeratin-18 can be determined by known methods, e.g. by an ELISA.
(§1) A double-blinded, randomized, placebo-controlled phase II clinical trial was conducted as described in the following.
(§2) Patients with a clinical diagnosis of non-alcoholic hepatic steatosis were randomized to a 12-week treatment period and a 4-week follow-up. Patients were divided into three groups. The first groups received 1,500 mg Nor-UDCA per day (6 capsules with 250 mg Nor-UDCA in each capsule). The second group received 500 mg Nor-UDCA per day (2 capsules with 250 mg Nor-UDCA in each capsule and 4 capsules with 250 mg placebo in each capsule). The third group received 6 capsules with 250 mg placebo in each capsule.

[2] = test system: acyl coenzyme A synthetase; conditions: in contrast to UDCA; cited from earlier work
[3] = test system: Patients with a clinical diagnosis of non-alcoholic hepatic steatosis; experiment: Hepatic fat fraction measured by MRI and/or MRS, phase II clinical trial; type: in vivo, human
Procedure: as §1, §2
If available, magnetic resonance imaging/spectroscopy (MRI/MRS) examinations were performed at V1 or within 4 weeks before and 1 week after V1 and at V6. Both, MRI and MRS are MR-based methods to separate the liver signal into its water and fat components. The resonance frequencies corresponding to protons in water and to the dominant protons in fat are distinct, and can be quantified directly from the spectral tracing.
The following equation was to be used to calculate the hepatic fat fraction derived from chemical shift imaging (CSI) data: CSI hepatic fat fractionunoorrected=SIin phase−SIopposed phase/2×SIin phase
To account for signal intensity differences not dependent of the fat content, a region of interest was also placed in the spleen in the same image as the liver measurements were performed. To calculate the signal-intensity corrected (using the spleen measurements) hepatic fat fraction, the equation above will be adopted as follows: CSI hepatic fat fractionspleen correction=(SIin phase liver/SIspleen)−(SIopposed phase liver/SIspleen)/2×(SIin phase liver/SIspleen)
If the calculations lead to negative mean hepatic fat fraction values, these negative values were considered as a fat fraction of 0, because a negative value is not possible.
MRS were performed at 1.5 or 3.0 Tesla to determine hepatic triglyceride content (in %).

[4] = test system: Patients with a clinical diagnosis of non-alcoholic hepatic steatosis; experiment: Ultrasound examination of the liver (steatosis hepatis grade), phase II clinical trial; type: in vivo, human
Procedure: as §1, §2
The ultrasound examination was performed at V1 or within 4 weeks before and 1 week after V1 and at V6.
The liver was scored by the most affected area.

[5] = test system: mouse models of obesity and steatosis; conditions: cited from earlier work
[6] = test system: Patients with a clinical diagnosis of non-alcoholic hepatic steatosis; experiment: Liver stiffness according to Fibroscan or ARFI, phase II clinical trial; type: in vivo, human
Procedure: as §1, §2
A) If available, Fibroscan examinations were performed at V1 or within 4 weeks before and 1 week after V1 and at V6. For the purpose of this measurement, patients should be fasting.
Fibroscan is a non-invasive device (Echosens, France) for the detection steatosis hepatis by vibration-controlled transient elastography. It consists of a vibrator device coupled to an ultrasound system. The signal from this device allows a calculation of stiffness of scanned tissue, and thereby an assessment of the extent of disease. Results of liver elasticity are to be expressed by stiffness (kPa) and success rate (%).
During measurement, an ultrafast pulse echosequence is emitted (pulse repetition frequency of 6 kHz) during the propagation of the controlled shear wave. The acquisition lasts only 80 ms and strains induced in the liver by the propagation of the shear wave is measured using standard autocorrelation approach between successive ultrasound lines. Stiffness values were obtained in kPA.
Liver stiffness was measured using either of two probes (M-probe or XL-probe) and documented with the following respective thresholds for different stages:
Stage 0/1 (i.e. <stage 2): <7.0 kPa (threshold)
Stage 0/1 (i.e. <stage 2): <6.2 kPa (threshold)
B) If available, Acoustic radiation force impulse imaging (ARFI) examinations were performed at V1 or within 4 weeks before and 1 week after V1 and at V6. ARFI measurements were documented with the following thresholds for different stages:
Stage 0/1 (i.e. <stage 2): <1.34 m/s (threshold)

[7] = N500 (500 mg Nor-UDCA per day), V1 screening
[8] = N500 (500 mg Nor-UDCA per day), V6-LOCF week 12
[9] = N1500 (1,500 mg Nor-UDCA per day), V1 screening
[10] = N1500 (1,500 mg Nor-UDCA per day), V6-LOCF week 12
[11] = N500 (500 mg Nor-UDCA per day), V6 week 12
[12] = N1500 (1,500 mg Nor-UDCA per day), V6 week 12

SMILES: CC(CC(=O)O)[C@H]1CCC2[C@H]3C(CC[C@@]21C)[C@@]1(C)CCC(O)C[C@H]1C[C@@H]3O (some centres unmarked) [Nor-UDCA, 24-nor-ursodeoxycholic acid]
- change of mean Cytokeratin 18 (M30 fragment) during the study ([1]; N500 (500 mg/day)): −34.4 U/I
- change of mean Cytokeratin 18 (M65 fragment) during the study ([1]; N500 (500 mg/day)): −106.0 U/I
- mean value of Cytokeratin 18 (M30 fragment) ([1]; N500 (500 mg/day)): 389.4 U/I
- mean value of Cytokeratin 18 (M65 fragment) ([1]; N500 (500 mg/day)): 590.2 U/I
- change of mean Cytokeratin 18 (M30 fragment) during the study ([1]; N1500 (1,500 mg/day)): −30.3 U/I
- change of mean Cytokeratin 18 (M65 fragment) during the study ([1]; N1500 (1,500 mg/day)): −80.6 U/I
- mean value of Cytokeratin 18 (M30 fragment) ([1]; N1500 (1,500 mg/day)): 333.7 U/I
- mean value of Cytokeratin 18 (M65 fragment) ([1]; N1500 (1,500 mg/day)): 519.9 U/I
- N-acyl amidation with taurine or glycine [2]: only minimal
- substrate for acyl coenzyme A synthetase [2]: poor substrate
- Hepatic fat fraction measured by MRI and/or MRS, Mean ± SD [3, 7]: 14.6 ± 14.5%
- Hepatic fat fraction measured by MRI and/or MRS, Mean ± SD [3, 8]: 15.5 ± 13.5%
- Hepatic fat fraction measured by MRI and/or MRS, Mean ± SD [3, 9]: 21.3% and 21.3 ± 15.4%
- Hepatic fat fraction measured by MRI and/or MRS, Mean ± SD [3, 10]: 16.3% and 16.3 ± 14.4%
- decrease in the hepatic fat fraction ([3]; group receiving 500 mg): no substantial decrease
- Number (%) of patients, steatosis hepatis grade Mild steatosis (S1) [4, 7]: 21.2%
- Number (%) of patients, steatosis hepatis grade Moderate steatosis (S2) [4, 7]: 45.5%
- Number (%) of patients, steatosis hepatis grade No/minimal steatosis (S0) [4, 7]: 6.1%
- Number (%) of patients, steatosis hepatis grade Severe steatosis (S3) [4, 7]: 27.3%
- Number (%) of patients, steatosis hepatis grade Mild steatosis (S1) [4, 11]: 28.8%
- Number (%) of patients, steatosis hepatis grade Moderate steatosis (S2) [4, 11]: 51.5%
- Number (%) of patients, steatosis hepatis grade No/minimal steatosis (S0) [4, 11]: 3.0%
- Number (%) of patients, steatosis hepatis grade Severe steatosis (S3) [4, 11]: 16.7%
- Number (%) of patients, steatosis hepatis grade Mild steatosis (S1) [4, 9]: 26.6%
- Number (%) of patients, steatosis hepatis grade Moderate steatosis (S2) [4, 9]: 53.1%
- Number (%) of patients, steatosis hepatis grade No/minimal steatosis (S0) [4, 9]: 0.0%
- Number (%) of patients, steatosis hepatis grade Severe steatosis (S3) [4, 9]: 20.3%
- Number (%) of patients, steatosis hepatis grade Mild steatosis (S1) [4, 12]: 26.6%
- Number (%) of patients, steatosis hepatis grade Moderate steatosis (S2) [4, 12]: 62.5%
- Number (%) of patients, steatosis hepatis grade No/minimal steatosis (S0) [4, 12]: 0.0%
- Number (%) of patients, steatosis hepatis grade Severe steatosis (S3) [4, 12]: 10.9%
- reduction in ALT ([5]; mouse model of obesity and steatosis, Steinacher et al. (2015)): significant reduction
- reduction in ALT ([5]; mouse models of obesity and steatosis, Steinacher et al. (2017)): considerable reduction
- Number (%) of patients, liver stiffness Stage 0/1 [6, 7]: 62.5%
- Number (%) of patients, liver stiffness Stage = 4 [6, 7]: 12.5%
- Number (%) of patients, liver stiffness Stage ≥2 [6, 7]: 14.6%
- Number (%) of patients, liver stiffness Stage ≥3 [6, 7]: 10.4%
- Number (%) of patients, liver stiffness Stage 0/1 [6, 8]: 58.3%
- Number (%) of patients, liver stiffness Stage = 4 [6, 8]: 10.4%
- Number (%) of patients, liver stiffness Stage ≥2 [6, 8]: 22.9%
- Number (%) of patients, liver stiffness Stage ≥3 [6, 8]: 8.3%
- Number (%) of patients, liver stiffness Stage 0/1 [6, 9]: 55.6%
- Number (%) of patients, liver stiffness Stage = 4 [6, 9]: 19.4%
- Number (%) of patients, liver stiffness Stage ≥2 [6, 9]: 17.6%
- Number (%) of patients, liver stiffness Stage ≥3 [6, 9]: 8.3%
- Number (%) of patients, liver stiffness Stage 0/1 [6, 10]: 67.5%
- Number (%) of patients, liver stiffness Stage = 4 [6, 10]: 15.0%
- Number (%) of patients, liver stiffness Stage ≥2 [6, 10]: 12.5%
- Number (%) of patients, liver stiffness Stage ≥3 [6, 10]: 5.0%
- percentage of patients with stage 0/1 liver stiffness, change in the course of the study ([6]; group receiving 500 mg Nor-UDCA): decreased
